Assays:
[1] = target: T1, melanocortin MC-4 receptor (Homo sapiens, UniProt P32245); assay: Melanocortin MC-4 Receptor Binding Assay (SPA)
T1 construct: purchased Receptor Biology Inc
Method in brief: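 Membranes bound to WGA SPA beads were incubated 16 h at 25° C with 40 pM ¹²⁵I-NDP-MSH and test compound (1 mM stock in 30% DMSO-HEPES pH 7.4). Nonspecific binding set with 1 μM NDP-MSH or α-MSH; percent inhibition from bound cpm.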

[2] = system: human sebocytes; assay: Nile red evaluation of lipid accumulation in sebocytes; type: cell-based; conditions: for inhibition at 0.4 µM: read-out: % Inh 0.4 μM (lipid accumulation, Nile red); for inhibition at 0.8 µM: read-out: % Inh 0.8 μM (lipid accumulation, Nile red)
Description: The cells were incubated at 37° C. for 24 hours prior to their use as a feeder layer for sebocytes. Human sebocytes were isolated from Dermatome shavings of postoperative pieces of human skin at 0.4-0.8 mm depths (this part of the skin was previously shown to be enriched in sebaceous glands). […] This medium was changed every 3 days (Phase III). Hormones, mixture of hormones i.e. bovine pituitary extract or compounds to be tested were added to the culture at the beginning of phase III. […] The evaluation of lipid accumulation completed using the Nile red method. This method relies on visualization of neutral lipids by Nile red and quantitation by reading of fluorescence at 535 nm excitation, 580 nm emission using a plate reader. The lipid synthesis was evaluated by radioactive labeling using ^14C acetate and quantified by Bio Rad Phosphoimager (Molecular Imager, FX) using 4.1 Software. […] Quantitation of accumulation/inhibition of neutral lipids in sebocytes was accomplished by Nile red binding assay. Briefly, following exposure of sebocytes to test compounds, the cells were allowed to interact with 1 μM Nile red in Hanks buffered saline solution containing DMSO and Pluronic F127. After 4 hours of incubation, washing and incubation overnight, the fluorescence was read at 535 excitation and 580 emission using a fluorescence plate reader. […] Following the procedure described above, select compounds of the present invention were tested for visual and Nile red evaluation of lipid accumulation, with results as listed in Table 9.

[3] = system: human sebocytes; assay: Visual observation of lipid granule formation in sebocytes; type: cell-based
Description: Semiconfluent cultures of 3T3 mouse fibroblasts (Swiss Albino mouse, ATCC CCL-92) were treated with mitomycin C (4 μg/ml) for 3 hours, trypsinized and seeded at a density of 2.5×10^5/9.5 cm^2 tissue culture plate in Dulbeccos Minimal Essential Medium (DMEM) containing 10% Colorado Calf Serum, PNC (100U/ml), STM (100 μg/ml), L glutamine (0.3 mg/ml), sodium pyruvate (1 mM) and nonessential amino acids (100 μM). The cells were incubated at 37° C. for 24 hours prior to their use as a feeder layer for sebocytes.
Human sebocytes were isolated from Dermatome shavings of postoperative pieces of human skin at 0.4–0.8 mm depths (this part of the skin was previously shown to be enriched in sebaceous glands). Shavings so obtained were treated with 1% Dispase in Iscoves medium containing 10% serum for 20 min at 37° C. The tissue was then placed in 0.3% trypsin/1% EDTA in Phosphate Buffered Saline (PBS) for 10 minutes at 37° C. Following this incubation the cells were gently scraped from the tissue in Growth medium (GM) containing DMEM/F12 media mixture (3:1), supplemented with 8% heat inactivated FBS, 2% heat inactivated human serum (HS), 1 mM sodium pyruvate, epidermal growth factor (10 ng/ml), insulin (10 μg/ml), hydrocortisone (0.4 μg/ml) and +/−cholera toxin (100 μg/ml), L-glutamine and antibiotics. Cells so obtained were filtered through nylon mesh ([…]), centrifuged at 750 RPM, re-suspended in GM and counted.
Resultant cells from the above isolation procedure were plated on the 3T3 feeder layers at 2×10^5/9.5 cm^2 in growth medium and maintained at 37° C. and 5% CO2 for 3 days (Phase I). Following the initial growth period they were transferred to a transition medium (TM) that consisted of DMEM/F12 media supplemented with 1 mM sodium pyruvate, insulin ([…]), transferrin ([…]) and selenium (5.5 μg/ml) (ITS), 2% heat inactivated FBS and 2% heat inactivated human serum as well as +/−cholera toxin (ch.t.) (100 μg/ml), L-glutamine and antibiotics (Phase II). Three days later the cells were changed to differentiation medium (DM), DMEM/F12 supplemented with ITS, 3,3′,5-triido-L-thyronine sodium (3 nM), 1%(v/v) trace element mix and the choice of differentiation agent i.e. bovine pituitary extract (10 μg/ml). This medium was changed every 3 days (Phase III).
Hormones, mixture of hormones i.e. bovine pituitary extract or compounds to be tested were added to the culture at the beginning of phase III. Two criteria were used to evaluate the effect of these materials on sebaceous cultures: 1) visual observations and 2) evaluation of sebaceous lipid accumulation and synthesis. The evaluation of lipid accumulation completed using the Nile red method. This method relies on visualization of neutral lipids by Nile red and quantitation by reading of fluorescence at 535 nm excitation, 580 nm emission using a plate reader. The lipid synthesis was evaluated by radioactive labeling using ^14C acetate and quantified by Bio Rad Phosphoimager (Molecular Imager, FX) using 4.1 Software.
Quantitation of accumulation/inhibition of neutral lipids in sebocytes was accomplished by Nile red binding assay. Briefly, following exposure of sebocytes to test compounds, the cells were allowed to interact with 1 μM Nile red in Hanks buffered saline solution containing DMSO and Pluronic F127. After 4 hours of incubation, washing and incubation overnight, the fluorescence was read at 535 excitation and 580 emission using a fluorescence plate reader.
Following the procedure described above, select compounds of the present invention were tested for visual and Nile red evaluation of lipid accumulation, with results as listed in Table 9.
Following the procedure described above, select compounds of the present invention were tested for their inhibitory effect on differentiation of human sebocytes. […]

[4] = target: MC5-R (Homo sapiens, UniProt P33032); assay: MC5-R binding
Sequence of MC5-R (P33032 whole entry): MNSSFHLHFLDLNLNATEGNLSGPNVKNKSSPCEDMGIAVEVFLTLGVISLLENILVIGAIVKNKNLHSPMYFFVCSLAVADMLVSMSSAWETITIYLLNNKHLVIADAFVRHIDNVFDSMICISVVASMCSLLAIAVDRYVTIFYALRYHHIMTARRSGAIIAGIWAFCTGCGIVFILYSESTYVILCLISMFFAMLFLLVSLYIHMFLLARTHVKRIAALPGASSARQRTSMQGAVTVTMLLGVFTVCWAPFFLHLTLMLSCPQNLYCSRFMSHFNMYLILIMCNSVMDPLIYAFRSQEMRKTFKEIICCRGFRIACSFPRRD

T1 sequence (P32245 whole entry): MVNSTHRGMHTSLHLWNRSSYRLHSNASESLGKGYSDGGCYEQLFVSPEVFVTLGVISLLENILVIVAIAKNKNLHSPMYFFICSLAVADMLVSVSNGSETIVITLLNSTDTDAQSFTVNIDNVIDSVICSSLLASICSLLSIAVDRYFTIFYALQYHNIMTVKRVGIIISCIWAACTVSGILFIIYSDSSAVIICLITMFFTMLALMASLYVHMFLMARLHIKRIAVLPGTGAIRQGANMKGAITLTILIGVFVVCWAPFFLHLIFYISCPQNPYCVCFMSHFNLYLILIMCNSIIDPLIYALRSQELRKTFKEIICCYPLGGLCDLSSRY

SMILES: COc1ccccc1-[n+]1sc(Nc2ccc(C)cc2)nc1-c1ccccc1.[Br-] [Compound 31, 2-(2-methoxyphenyl)-3-phenyl-5-p-tolylamino-[1,2,4]thiadiazol-2-ium]
- IC50 [1]: 22 nM

SMILES: COc1ccc(N(C)c2nc(-c3ccccc3)[n+](-c3ccc(C)cc3)s2)cc1 [Compound 50]
- IC50 [1]: 30000 nM
- inhibition at 0.4 µM [2]: 0%
- inhibition at 0.8 µM [2]: 0%
- Visual* 0.4 μM (inhibition of lipid granule formation) [3]: 0
- Visual* 0.8 μM (inhibition of lipid granule formation) [3]: 0
- MC5-R IC50 [4]: No binding

SMILES: COc1ccccc1-c1nc(Nc2ccccc2)s[n+]1-c1ccccc1OC.[Br-] [Compound 74, 2-(2-methoxyphenyl)-3-(2-methoxyphenyl)-5-phenylamino-[1,2.4]thiadiazol-2-ium]
- IC50 [1]: 194 nM
- inhibition at 0.4 µM [2]: 72%
- inhibition at 0.8 µM [2]: 100%
- Visual* 0.4 μM (inhibition of lipid granule formation) [3]: +++ (+++ = 75%)
- Visual* 0.8 μM (inhibition of lipid granule formation) [3]: ++++ (++++ = 100%)
- lipid granules in sebocyte cultures (visual, stained cultures) ([3]; seven day treatment): complete disappearance of lipid granules
- IC50 [4]: 154 nM

SMILES: c1ccc(CNc2nc(-c3ccccc3)[n+](-c3ccccc3)s2)cc1 [Compound 84]
- inhibition at 0.4 µM [2]: 0%
- inhibition at 0.8 µM [2]: 0%
- Visual* 0.4 μM (inhibition of lipid granule formation) [3]: 0
- Visual* 0.8 μM (inhibition of lipid granule formation) [3]: 0
- MC5-R IC50 [4]: No binding
